{"source": "patent US8975298B2", "about": "“Therapeutic agent for pain” (ONO Pharmaceutical Co., Ltd., priority 2005, dated 2015)", "key": {"[1]": {"tested_on": "spinal nerve ligation model rats", "test": "Escape threshold of contact stimulus, von Frey filaments (contact allodynia) in rat spinal nerve ligation model", "assay_type": "in vivo", "experimental": "(§1) Male rats were used in the experiment. Spinal nerve ligation models were made in accordance with the method of Kim & Chung (Kim, S. H. & Chung, J. M., An experimental model for peripheral neuropathy produced by segmental spinal nerve ligation in the rat, Pain, 50, 355-363, 1992). Namely, the fifth lumber nerve in one side was strongly ligated with silken threads.\n(§2) More specifically, the models were made in the following manner.\n(§3) After intraperitoneally administering 40 mg/kg (liquid volume 0.8 ml/kg) of pentobarbital (Nenbutal Injection (trade name), Dainippon Pharmaceutical Co., Ltd.), a rat was fixed in the dorsal position under anesthesia and the abdomen was incised in the median line with scissors. The intestines and the like were pushed aside with sterilized gauze and the abdominal aorta and the abdominal vein were confirmed. Then, the muscle located immediately below the iliolumbar vein was cleaved with tweezers. After confirming the fourth lumber nerve and the fifth lumber nerve in the muscle, the fifth lumber nerve (L5) was ligated with 6-0 silken threads. Subsequently, the intestines having been pushed away were returned to the original positions. 5 ml of physiological saline (otsuka Pharmaceutical Factory, Inc.) containing ampicillin sodium (Viccillin for Injection (trade name), Meiji Seika Kaisha, Ltd.) (ampicillin concentration: 20 mg/ml) was poured into the peritoneal cavity, and the abdominal muscles and skin were sutured with a nylon thread.\nFrom immediately after the spinal nerve ligation, 30 mg/kg of (2R)-2-propyloctanoic acid was orally administered once a day for 14 days (14 times in total). Also, vehicle control was administered in the same manner.\n(3-2) Measurement of Escape Threshold of Contact Stimulus (Evaluation of Contact Allodynia)\nOn the next day of the final administration, the escape threshold of a contact stimulus was measured. Namely, filaments (von Frey filaments: VFF) were pressed against right and left footpads from the lower side. Then, the VFF indication at the occurrence of an escape response was recorded and converted into weight (g)."}, "[2]": {"tested_on": "spinal nerve ligation model rats", "test": "Latent time of pain response to heat stimulus (heat hyperalgesia) in rat spinal nerve ligation model", "assay_type": "in vivo", "experimental": "as §1, §2, §3\nFrom immediately after the spinal nerve ligation, 30 mg/kg of (2R)-2-propyloctanoic acid was orally administered once a day for 14 days (14 times in total). Also, vehicle control was administered in the same manner. […]\nOn the next day of the final administration, the latent time of heat stimulus was measured. Namely, right and left footpads were irradiated with infrared light of a halogen lamp from the lower side, and the time until the occurrence of an escape response (the latent time of pain reaction: sec) was measured."}, "dogs": {"tested_on": "dogs", "conditions": "dog, in vivo, iv, 100 mg/kg", "description": "Since the toxicity of (2R)-2-propyloctanoic acid, a salt thereof or a prodrug thereof is extremely low, it can be considered to be sufficiently safe for medicinal uses."}, "[3]": {"conditions": "30 mg/kg orally once a day for 14 days from immediately after L5 ligation, measured next day after final administration, injured (operated-on) side"}, "[4]": {"conditions": "30 mg/kg orally once a day for 14 days from immediately after L5 ligation, measured next day after final administration, normal (opposite) side"}, "[5]": {"conditions": "30 mg/kg orally, 14 days, injured side vs vehicle control, p<0.01 Welch test"}}, "note": "Where “and” joins values, the source holds several entries; their conditions need not be identical. Equal entries are not always repeated.", "data": [{"compound": "CCCCCC[C@@H](CCC)C(=O)O", "note": "[(2R)-2-propyloctanoic acid]", "values": [{"measurement": "Escape threshold of contact stimulus (g) Injured side", "setting": "[1]; [3]", "result": "14.7 g and 14.7 ± 12.7 g"}, {"measurement": "Escape threshold of contact stimulus (g) Normal side", "setting": "[1]; [4]", "result": "66.1 g and 66.1 ± 29.8 g"}, {"measurement": "Analgesic effect on contact allodynia", "setting": "[1]; [5]", "result": "an analgesic effect on contact allodynia was confirmed"}, {"measurement": "Latent time of pain response (sec) Injured side", "setting": "[2]; [3]", "result": "13.61 s and 13.61 ± 6.76 s"}, {"measurement": "Latent time of pain response (sec) Normal side", "setting": "[2]; [4]", "result": "19.00 s and 19.00 ± 5.58 s"}, {"measurement": "Analgesic effect on heat hyperalgesia", "setting": "[2]; [5]", "result": "an analgesic effect on heat hyperalgesia was confirmed"}, {"measurement": "Fatal cases", "setting": "dogs", "result": "no fatal case was observed"}]}]}
